The values that follow come from patent US5385911A, “Anti-herpes castanospermine esters” (priority 1990, dated 1995).

For data set [1], the system named is viral protein glycosylation. The conditions noted are these: cited from earlier work.
A further data set concerns HIV glycoproteins. The conditions noted are these: cited from earlier work; for formation of syncytia: HIV.
The test system of the next data set is HSV. The conditions noted are these: cited from earlier work.
For another data set, the system named is Herpes infections. The conditions noted are these: in man; cited from earlier work.
Another data set relates to HSV1 and HSV2. The conditions noted are these: cited from earlier work.
The conditions of data set [2]: at high dosage; cited from earlier work.
For a further data set, the system named is HSV1 strain 17i. Put plainly: plaque-reduction assay, HSV1 strain 17i in MRC5 cells. The class given is cell-based, HSV1 strain 17i; human embryonic fibroblast cells (MRC5). The conditions noted are these: Human alphaherpesvirus 1, 72 h, 3 days incubation, read-out: ED50 HSVI. Here is the method: (§1) Antiviral activity of the compounds of formula (1) can assessed by the plaque-reduction assay as previously described by Tyms et al., J. Antimicrobial Chemotherapy, 8, 65-72 (1981). Briefly, human embryonic fibroblast cells (MRC5) were cultured in 24-well tissue culture trays in the presence of Eagles' minimum essential medium (MEM) supplemented with 10% fetal calf serum. When cell monolayers were semi-confluent, they were inoculated with 30-50 plaque-forming units of HSV2 strain HG52 or HSV1 strain 17[…]. General Virology, 55, 315-331 (1981). […] After 3 days incubation, cells were fixed in 10% formalin in saline and subsequently stained with 0.3% methylene blue. Dose-responselines were plotted from the mean number of plaques present versus the log of the concentration of the compound. The 50% effective dose (ED50) was computed after linear regression analysis.
A general note: Plaques are areas of infected cells; plaque reduction assays count them against a control.

For the next data set, the system named is HSV2 strain HG52. Description: plaque-reduction assay, HSV2 strain HG52 in MRC5 cells. The class given is cell-based, HSV2 strain HG52; human embryonic fibroblast cells (MRC5). The conditions noted are these: Human alphaherpesvirus 2, 72 h, 3 days incubation, read-out: ED50 HSVII. As for the experimental part:
as §1

For the compound 2-deoxy-2-fluoroglucose, in data set [1], the “inhibition of viral protein glycosylation” value was “inhibit viral protein glycosylation by a different mechanism”.
Regarding `O=CC[C@@H](O)[C@H](O)[C@H](O)CO` [2-deoxy-D-glucose], in the data set on HIV glycoproteins, the formation of syncytia result is listed as “block the formation of syncytia” and the “expression of HIV glycoproteins” value is “inhibit expression of HIV glycoproteins”. Further, the “activity against HSV” value with HSV is “active against HSV”. In the data set on Herpes infections, the “efficacy in the treatment of Herpes infections” value is “has shown efficacy in the treatment of Herpes infections in man”.
In the case of `O=CC[C@@H](O)[C@H](O)[C@H](O)CO` [2-deoxyglucose], the “inhibition of viral protein glycosylation” value in data set [1] was “inhibit viral protein glycosylation by a different mechanism”.
Take `Nc1nc2c(ncn2COCCO)c(=O)[nH]1` [Acyclovir]: the antiviral effect result with HSV1 and HSV2 is recorded as “potent antiviral effect”. For the same compound, in data set [2], the solubility result is reported as “Poor solubility at high dosage”.
With `CCCC(=O)O[C@H]1CN2CC[C@H](O)[C@@H]2[C@@H](O)[C@@H]1O` [MDL 28,574, [1S-(1α,6β,7α,8β,8aβ)]-octahydro-1,6,7,8-indolizinetetrol 6-butanoate], the figures for the EC50 in the data set on HSV1 strain 17i and with HSV2 strain HG52 were not above 75 µg/mL and not above 22 µg/mL, respectively.
On to `Cc1ccc(C(=O)O[C@H]2CN3CC[C@H](O)[C@@H]3[C@@H](O)[C@@H]2O)cc1` [MDL 29,204], for which the EC50 in the data set with HSV2 strain HG52 was not above 20 µg/mL.
For the compound `CCC=CCC(=O)O[C@H]1CN2CC[C@H](O)[C@@H]2[C@@H](O)[C@@H]1O` [MDL 29,513, [1S-(1α,6β,7α,8β,8aβ)]-octahydro-1,6,7,8-indolizinetetrol 6-(3-hexenoate)], the EC50 in the data set on HSV1 strain 17i and in the data set on HSV2 strain HG52 was not above 5 µg/mL throughout.
As to `CCCCCCCC(=O)O[C@H]1CN2CC[C@H](O)[C@@H]2[C@@H](O)[C@@H]1O` [MDL 29,797, [1S-(1α,6β,7α,8β,8aβ)]-octahydro-1,6,7,8-indolizinetetrol 6-octanoate], the EC50 in the data set on HSV1 strain 17i was not above 10 µg/mL; in the data set on HSV2 strain HG52 it was not above 5 µg/mL.
As for `O=C(O[C@H]1CN2CC[C@H](O)[C@@H]2[C@@H](O)[C@@H]1O)c1ccccc1` [MDL 43,305, [1S-(1α,6β,7α,8β,8aβ)]-octahydro-1,6,7,8-indolizinetetrol 6-benzoate], in the data set with HSV2 strain HG52, the EC50 is not above 20 µg/mL.
With `CCC(O)[C@H](N)C(=O)O` (stereo partly drawn) [β-hydroxy-norvaline], in the data set with HIV glycoproteins, the formation of syncytia entry is listed as “block the formation of syncytia” and the “expression of HIV glycoproteins” value was “inhibit expression of HIV glycoproteins”.
